Measured values taken from patent publication US20110196006A1, “IMAZALIL COMPOSITIONS COMPRISING ALKOXYLATED AMINES” (priority 2004, published 2011).

Tests used:
Microdochium nivale [1] = experiment: Experiment 2: poison plate assay (growth inhibition, MIC); assay type: cell-based; conditions: as Experiment 1, imazalil 10-2.37 ppm, alkoxylated amine 40-9.49 ppm
Protocol: Activity against growth of Microdochium nivale was determined with the poison plate assay. A calculated amount of a stock solution (containing either imazalil or an alkoxylated amine of formula (I) dissolved in dimethyl sulfoxide was pipetted into multiwell plates. Culture medium (potato dextrose agar) was added aseptically and uniform distribution was obtained by shaking. The plates were inoculated with the test fungus Microdochium nivale (suspension of 6.10^5 spores/ml). The multi-well plates were kept in the dark at 21° C. and a relative humidity of 75%. The lowest concentration of each test compound or mixture of test compounds sufficient to inhibit visible growth was taken as the minimum inhibitory concentration (MIC). The MIC were taken as end points of activity. End points for the combinations of imazalil with an alkoxylated amine of formula (I) were then compared with the end points for these test compound when employed individually. A similar poison plate assay was run as described in Experiment 1, but the final concentrations of imazalil now ranged from 10, 7.50, 5.63, 4.22, 3.16 to 2.37 ppm. The final concentrations of alkoxylated amine of formula (I) now ranged from 40, 30, 22.50, 16.88, 12.66 to 9.49 ppm.

Microdochium nivale [2] = experiment: Experiment 1: poison plate assay (growth inhibition, MIC); assay type: cell-based; conditions: potato dextrose agar, 21° C., dark, 75% relative humidity, imazalil 6.66-1.58 ppm, alkoxylated amine 26.66-6.33 ppm, combinations imazalil:amine 1 to 4
Protocol: Activity against growth of Microdochium nivale was determined with the poison plate assay. A calculated amount of a stock solution (containing either imazalil or an alkoxylated amine of formula (I) dissolved in dimethyl sulfoxide was pipetted into multiwell plates. Culture medium (potato dextrose agar) was added aseptically and uniform distribution was obtained by shaking. The plates were inoculated with the test fungus Microdochium nivale (suspension of 6.10^5 spores/ml). The multi-well plates were kept in the dark at 21° C. and a relative humidity of 75%. The stock solution comprising imazalil at a concentration of 2000 ppm was pipetted in the multiwell plates in order to reach a final test concentration in six decreasing steps ranging from 6.66, 5.00, 3.75, 2.81, 2.11 and 1.58 ppm. The stock solution comprising an alkoxylated amine of formula (I) at a concentration of 8000 ppm was pipetted in the multiwell plates in order to reach a final test concentration in six decreasing steps ranging from 26.66, 20.00, 15.00, 11.25, 8.44, and 6.33 ppm wherein the ratio of imazalil to alkoxylated amine of formula (I) is 1 to 4 in each of the wells containing both imazalil and alkoxylated amine (I). The lowest concentration of each test compound or mixture of test compounds sufficient to inhibit visible growth was taken as the minimum inhibitory concentration (MIC). The MIC were taken as end points of activity. End points for the combinations of imazalil with an alkoxylated amine of formula (I) were then compared with the end points for these test compound when employed individually.

[3] = Microdochium nivale, read-out: MIC-values (lowest concentration sufficient to inhibit visible growth)

C=CCOC(Cn1ccnc1)c1ccc(Cl)cc1Cl (centres unmarked) [imazalil]
MIC (Microdochium nivale [1]; [3]): 3.16 µg/mL
MIC (Microdochium nivale [2]; [3]): 2.81 µg/mL

N,N′,N′-tris(2-hydroxyethyl)-N-cocoalkyl-1,3-diaminopropane [ethoduomeen C13]
MIC-values (lowest concentration sufficient to inhibit visible growth) (Microdochium nivale [1]): >40 ppm

N,N′,N′-tris-(2-hydroxyethyl)-N-tallowalkyl-1,3-diaminopropane [ethoduomeen T13]
MIC-values (lowest concentration sufficient to inhibit visible growth) (Microdochium nivale [2]): >26.7 ppm

bis-(2-hydroxyethyl)cocoalkylamine [ethomeen C12]
MIC-values (lowest concentration sufficient to inhibit visible growth) (Microdochium nivale [2]): >26.7 ppm
